Patent publication US8394967B2, “Antioxidant inflammation modulators: C-17 homologated oleanolic acid derivatives” (Reata Pharmaceuticals, Inc., priority 2008, dated 2013)

Assays:
[1] = tested on: γ-GCS; assay: Nrf2 target gene induction, MDA-MB-435 (qPCR): γ-GCS; format: cell-based; details: Homo sapiens; MDA-MB-435, 250 nM, 16 hours, mRNA by qPCR
Method: (§1) Nrf2 target gene induction. MDA-MB-435 human melanoma cells were treated with vehicle (DMSO) or the indicated compounds and concentrations for 16 hours. HO-1, thioredoxin reductase-1 (TrxR1), γ-glutamylcysteine synthetase (γ-GCS), and ferritin heavy chain mRNA levels were quantified using qPCR and were normalized relative to a DMSO-treated sample run in parallel. Values are averages of duplicate wells. Primer sequences are as follows.

[2] = tested on: NQO1; assay: Nrf2 target gene induction, MDA-MB-435 (qPCR): NQO1; format: cell-based; details: Homo sapiens; MDA-MB-435, 250 nM, 16 hours, mRNA by qPCR
[3] = tested on: HO-1; assay: Nrf2 target gene induction, MDA-MB-435 (qPCR): HO-1; format: cell-based; details: Homo sapiens; MDA-MB-435, 250 nM, 16 hours, mRNA by qPCR
Method: as §1

[4] = tested on: RAW264.7 macrophages; assay: Cell viability of RAW264.7 macrophages (WST-1 reagent); format: cell-based, mouse; details: Mus musculus, RAW264.7, 24 h, cell viability, RAW264.7, 20 ng/ml IFNγ 24 hours, WST-1 reagent; read-out: RAW264.7 (20 ng/ml IFNγ) WST-1 IC50
Method: (§2) FIGS. 1-4, 6 and 8. Inhibition of NO Production. RAW264.7 macrophages were pre-treated with DMSO or drugs at various concentrations (nM) for 2 hours, then treated with 20 ng/ml IFNγ for 24 hours. NO concentration in media was determined using a Griess reagent system; cell viability was determined using WST-1 reagent.
(§3) Nitric Oxide production and cell viability. RAW264.7 macrophages were pre-treated with DMSO or drugs for 2 hours, then treated with recombinant mouse IFNγ (Sigma) for 24 hours. NO concentration in media was determined using the Griess reagent system (Promega). Cell viability was determined using WST-1 reagent (Roche).

[5] = tested on: NO production in RAW264.7 macrophages; assay: Inhibition of NO production in IFNγ-treated RAW264.7 macrophages (Griess reagent); format: cell-based, mouse; details: Mus musculus, RAW264.7, RAW264.7 macrophages pre-treated 2 hours, then 20 ng/ml IFNγ for 24 hours
Method: as §2, §3

| IC50 [5] [nM] | SMILES | fold induction at 0.25 µM [1] | fold induction at 0.25 µM [2] | fold induction at 0.25 µM [3] | IC50 [4] [nM] |
| --- | --- | --- | --- | --- | --- |
| ~25 | CC1(C)CC[C@]2(CN)CC[C@]3(C)[C@H](C(=O)C[C@@H]4[C@@]5(C)C=C(C#N)C(=O)C(C)(C)[C@@H]5CC[C@]43C)[C@@H]2C1 [Compound 63214, (6aR,6bR,8aS,12aS,12bR,14bR)-8a-(aminomethyl)-4,4,6a,6b,11,11,14b-heptamethyl-3,13-dioxo-3,4,4a,5,6,6a,6b,7,8,8a,9,10,11,12,12a,12b,13,14,14a,14b-icosahydropicene-2-carbonitrile] | 3 | 1.8 | 2 | > 200 |
| ~25 | CC1(C)CC[C@]2(CNCC#N)CC[C@]3(C)[C@H](C(=O)C[C@@H]4[C@@]5(C)C=C(C#N)C(=O)C(C)(C)[C@@H]5CC[C@]43C)[C@@H]2C1 [Compound 63218, (4aR,6aR,6bR,8aS,12aS,12bR,14aR,14bR)-8a-((cyanomethylamino)methyl)-4,4,6a,6b,11,11,14b-heptamethyl-3,13-dioxo-3,4,4a,5,6,6a,6b,7,8,8a,9,10,11,12,12a,12b,13,14,14a,14b-icosahydropicene-2-carbonitrile] | 10 | 3.4 | 3 | > 200 |
| ~15 | CC1(C)CC[C@]2(CNS(C)(=O)=O)CC[C@]3(C)[C@H](C(=O)CC4[C@@]5(C)C=C(C#N)C(=O)C(C)(C)C5CC[C@]43C)[C@@H]2C1 (stereo partly drawn) [Compound 63220, N-(((4aS,6aR,6bR,12aR,14aR,14bS)-11-cyano-2,2,6a,6b,9,9,12a-heptamethyl-10,14-dioxo-1,2,3,4,4a,5,6,6a,6b,7,8,8a,9,10,12a,12b,13,14,14a,14b-icosahydropicen-4a-yl)methyl)methanesulfonamide] | 6 | 2 | 3 | > 200 |
| ~15 | CC1(C)CC[C@]2([C@@H](O)CO)CC[C@]3(C)[C@H](C(=O)C[C@@H]4[C@@]5(C)C=C(C#N)C(=O)C(C)(C)[C@@H]5CC[C@]43C)[C@@H]2C1 [Compound 63221, (4aR,6aR,6bR,8aS,12aS,12bR,14aR,14bR)-8a-((R)-1,2-dihydroxyethyl)-4,4,6a,6b,11,11,14b-heptamethyl-3,13-dioxo-3,4,4a,5,6,6a,6b,7,8,8a,9,10,11,12,12a,12b,13,14,14a,14b-icosahydropicene-2-carbonitrile] | 4.5 | 2 | 2 | > 200 |
| ~20 | CC1(C)CC[C@@]23CC[C@@]4(C)[C@]5(C)CC[C@H]6C(C)(C)C(=O)C(C#N)=C[C@]6(C)[C@H]5CC(=O)[C@]4(OC2CO)[C@@H]3C1 (stereo partly drawn) [Compound 63224] | 8 | 2.5 | 4 | > 200 |
| ~20 | CC1(C)CC[C@]2(CNS(=O)(=O)CC(F)(F)F)CC[C@]3(C)[C@H](C(=O)C[C@@H]4[C@@]5(C)C=C(C#N)C(=O)C(C)(C)[C@@H]5CC[C@]43C)[C@@H]2C1 [Compound 63225, N-(((4aS,6aR,6bR,8aR,12aR,12bR,14aR,14bS)-11-cyano-2,2,6a,6b,9,9,12a-heptamethyl-10,14-dioxo-1,2,3,4,4a,5,6,6a,6b,7,8,8a,9,10,12a,12b,13,14,14a,14b-icosahydropicen-4a-yl)methyl)-2,2,2-trifluoroethanesulfonamide] | 6.5 | 2.4 | 4 | > 200 |
| ~12 | CC1(C)CC[C@]2(CNC(=O)C(F)(F)F)CC[C@]3(C)[C@H](C(=O)C[C@@H]4[C@@]5(C)C=C(C#N)C(=O)C(C)(C)[C@@H]5CC[C@]43C)[C@@H]2C1 [Compound 63226, N-(((4aS,6aR,6bR,12aR,14aR,14bS)-11-cyano-2,2,6a,6b,9,9,12a-heptamethyl-10,14-dioxo-1,2,3,4,4a,5,6,6a,6b,7,8,8a,9,10,12a,12b,13,14,14a,14b-icosahydropicen-4a-yl)methyl)-2,2,2-trifluoroacetamide] | 6 | 2 | 4 | > 200 |
| ~25 | COC[C@]12CCC(C)(C)C[C@H]1[C@H]1C(=O)C[C@@H]3[C@@]4(C)C=C(C#N)C(=O)C(C)(C)[C@@H]4CC[C@@]3(C)[C@]1(C)CC2 [Compound 63228, (4aR,6aR,6bR,8aS,12aS,12bR,14aR,14bR)-8a-(methoxymethyl)-4,4,6a,6b,11,11,14b-heptamethyl-3,13-dioxo-3,4,4a,5,6,6a,6b,7,8,8a,9,10,11,12,12a,12b,13,14,14a,14b-icosahydropicene-2-carbonitrile] | 4 | 2 | 2 | 200 |
| ~15 | CC1(C)CC[C@]2(CCO)CC[C@]3(C)[C@H](C(=O)C[C@@H]4[C@@]5(C)C=C(C#N)C(=O)C(C)(C)[C@@H]5CC[C@]43C)[C@@H]2C1 [Compound 63231, (4aR,6aR,6bR,8aR,12aS,12bR,14aR,14bR)-8a-(2-hydroxyethyl)-4,4,6a,6b,11,11,14b-heptamethyl-3,13-dioxo-3,4,4a,5,6,6a,6b,7,8,8a,9,10,11,12,12a,12b,13,14,14a,14b-icosahydropicene-2-carbonitrile] | 5 | 2.1 | 1.2 | > 200 |
| ~50 | CC1(C)CC[C@]2(COC(=O)C(C)(C)C)CC[C@]3(C)[C@H](C(=O)C[C@@H]4[C@@]5(C)C=C(C#N)C(=O)C(C)(C)[C@@H]5CC[C@]43C)[C@@H]2C1 [Compound 63297, ((4aS,6aR,6bR,8aR,12aR,12bR,14aR,14bS)-11-cyano-2,2,6a,6b,9,9,12a-heptamethyl-10,14-dioxo-1,2,3,4,4a,5,6,6a,6b,7,8,8a,9,10,12a,12b,13,14,14a,14b-icosahydropicen-4a-yl)methyl pivalate] | – | – | – | ~200 |
| ~80 | CC1(C)CC[C@]2(COC(=O)c3ccccc3)CC[C@]3(C)[C@H](C(=O)C[C@@H]4[C@@]5(C)C=C(C#N)C(=O)C(C)(C)[C@@H]5CC[C@]43C)[C@@H]2C1 [Compound 63298, ((4aS,6aR,6bR,8aR,12aR,12bR,14aR,14bS)-11-cyano-2,2,6a,6b,9,9,12a-heptamethyl-10,14-dioxo-1,2,3,4,4a,5,6,6a,6b,7,8,8a,9,10,12a,12b,13,14,14a,14b-icosahydropicen-4a-yl)methyl benzoate] | – | – | – | ~200 |
| ~18 | C#C[C@]12CCC(C)(C)C[C@H]1[C@H]1C(=O)C[C@@H]3[C@@]4(C)C=C(C#N)C(=O)C(C)(C)[C@@H]4CC[C@@]3(C)[C@]1(C)CC2 [Compound 63303, (4aR,6aR,6bR,8aS,12aS,12bR,14aR,14bR)-8a-ethynyl-4,4,6a,6b,11,11,14b-heptamethyl-3,13-dioxo-3,4,4a,5,6,6a,6b,7,8,8a,9,10,11,12,12a,12b,13,14,14a,14b-icosahydropicene-2-carbonitrile] | – | – | – | ~150 |
